As usually defined, the IC50 is the concentration needed to halve the response being measured.

Drawing on ChEMBL document CHEMBL4308863, “Oxidative nucleophilic substitution selectively produces cambinol derivatives with antiproliferative activity on bladder cancer cell lines” (Bioorg Med Chem Lett, 2019), this text covers IC50, inhibition and Activity for nine compounds.

For assay [1], the system named is EJ. The assay is described as follows: Antiproliferative activity against human MGHU1 cells expressing wild-type p53 assessed as decrease in cell viability after 24 hrs by MTT assay. The format is functional, cell-based. (Tetrazolium assays rely on reduction of a dye to a coloured formazan, in cell work by metabolically active cells.)
A short description of assay [2]: Cytotoxicity against human C3PV cells assessed as decrease in cell viability after 24 hrs by MTT assay. The format is cell-based.
Assay [3] in a line: Cytotoxicity against human C3PV cells assessed as decrease in cell viability after 3 hrs by MTT assay. The format is cell-based.
Assay [4] has as its system EJ. The assay is described as follows: Antiproliferative activity against human MGHU1 cells expressing wild-type p53 assessed as decrease in cell viability after 3 hrs by MTT assay. It is filed as functional, cell-based.
For assay [5], the system named is RT-112. The assay is described as follows: Antiproliferative activity against human RT112 cells expressing p53 mutant assessed as decrease in cell viability after 3 hrs by MTT assay. It is filed as functional, cell-based. The note with it: RT-112, 3 h.
Assay [6] concerns RT-112. Description: Antiproliferative activity against human RT112 cells expressing p53 mutant assessed as decrease in cell viability after 24 hrs by MTT assay. The format is functional, cell-based. The note with it: RT-112, 24 h.
Assay [7] addresses T1, NAD-dependent protein deacetylase sirtuin-1 (Homo sapiens) (UniProt Q96EB6).
T1 sequence (whole entry): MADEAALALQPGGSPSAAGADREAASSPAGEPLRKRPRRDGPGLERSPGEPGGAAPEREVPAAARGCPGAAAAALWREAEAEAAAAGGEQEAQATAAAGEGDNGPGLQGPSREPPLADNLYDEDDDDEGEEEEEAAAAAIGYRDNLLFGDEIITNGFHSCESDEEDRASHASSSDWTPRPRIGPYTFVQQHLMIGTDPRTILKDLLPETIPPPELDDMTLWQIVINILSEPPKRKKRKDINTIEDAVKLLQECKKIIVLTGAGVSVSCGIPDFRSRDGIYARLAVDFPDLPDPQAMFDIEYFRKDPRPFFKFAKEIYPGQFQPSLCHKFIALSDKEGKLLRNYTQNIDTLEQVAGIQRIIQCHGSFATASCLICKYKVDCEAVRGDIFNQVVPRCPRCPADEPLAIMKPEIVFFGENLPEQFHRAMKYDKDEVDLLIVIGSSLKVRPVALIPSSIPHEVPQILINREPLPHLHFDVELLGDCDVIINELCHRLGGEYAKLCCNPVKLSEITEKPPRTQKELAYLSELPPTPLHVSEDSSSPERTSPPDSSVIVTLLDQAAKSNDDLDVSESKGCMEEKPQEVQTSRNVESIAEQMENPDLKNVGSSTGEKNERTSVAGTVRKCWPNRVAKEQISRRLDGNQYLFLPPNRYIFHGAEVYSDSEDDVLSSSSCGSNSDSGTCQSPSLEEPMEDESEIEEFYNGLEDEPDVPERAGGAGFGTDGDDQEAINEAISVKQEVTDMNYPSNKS
The assay is described as follows: Inhibition of SIRT1 (unknown origin) at 10 uM using acetylated peptide p53K382 as substrate preincubated for 15 mins followed by substrate addition and measured after 40 mins by fluorescence assay.

Assay [8] has as its target T1, NAD-dependent protein deacetylase sirtuin-1 (Homo sapiens). The assay is described as follows: Inhibition of SIRT1 in human MGHU1 cells assessed as stabilization of p53 by measuring increase in p53 acetylation after 3 to 24 hrs by Western blot analysis. The format is cell-based.
Assay [9] concerns EJ. Description: Effect on acetylated-histone H3 expression in human MGHU1 cells after 3 to 24 hrs by Western blot analysis. The format is functional, cell-based. Background: Immunoblotting shows a protein as a band on a membrane.
Assay [10] has as its system EJ. The assay is described as follows: Inhibition of colony formation in human MGHU1 cells expressing wild-type p53 at […] uM after 3 to 24 hrs by crystal violet staining based assay. The format is functional, cell-based.
Assay [11] deals with RT-112. Description: Inhibition of colony formation in human RT112 cells expressing p53 mutant at 24.50 to 28.74 uM after 3 to 24 hrs by crystal violet staining based assay. It is filed as functional, cell-based.
For assay [12], the target named is T1, NAD-dependent protein deacetylase sirtuin-1 (Homo sapiens). The assay is described as follows: Inhibition of SIRT1 in human MGHU1 cells assessed as induction of p53 after 3 to 24 hrs by Western blot analysis. It is filed as cell-based.
The test system of assay [13] is EJ. Description: Effect on acetylated-p53 expression in human MGHU1 cells after 3 to 24 hrs by Western blot analysis. The format is functional, cell-based.

Calls of active or inactive are those of the source. No cut-off for these calls is given here.

As to `O=c1[nH]c(NCCO)nc(-c2ccccc2)c1Cc1c(O)ccc2ccccc12`, the IC50 was over 300 µM in the assay with EJ [1]; over 300 µM in assay [2]; over 300 µM in assay [3]; 282 µM in the assay on EJ [4]; 7.2 µM in the assay on RT-112 [5]; 96.6 µM in the assay with RT-112 [6]. In addition, the inhibition entry in [7] is “inactive”.
Consider `O=c1[nH]c(NCCc2ccc(O)cc2)nc(-c2ccccc2)c1Cc1c(O)ccc2ccccc12`, for which the IC50 in the assay with EJ [1] was 82.1 µM; in [2] it was over 300 µM; in [3], 145 µM; in the assay on EJ [4], 22.1 µM; with RT-112 [5] it was 48.9 µM; in the assay on RT-112 [6], 106 µM. The inhibition entry in assay [7] was “inactive”.
Consider `O=c1[nH]c(=S)[nH]c(-c2ccccc2)c1Cc1c(O)ccc2ccccc12` [CAMBINOL], for which the IC50 in the assay with EJ [1] is 242 µM; in [2], over 300 µM; in [3], 39.9 µM; in the assay on EJ [4] it was 95.9 µM; in the assay with RT-112 [5], 37.9 µM; in the assay on RT-112 [6], 125 µM.
On to `CCCCNc1nc(-c2ccccc2)c(Cc2c(O)ccc3ccccc23)c(=O)[nH]1`, for which the IC50 with EJ [1] was 28.7 µM; in assay [2], over 300 µM; in assay [3], 47.6 µM; in the assay with EJ [4], 24.5 µM; in the assay with RT-112 [5], 1.9 µM; with RT-112 [6], 1.6 µM. Further, the inhibition entry in [8], in assay [7] and in assay [12] was “inactive” in each case. In addition, the outcome in the assay on EJ [9] and in the assay with EJ [13] was inactive. The inhibition entry in the assay on EJ [10] and with RT-112 [11] was “Active” in each case.
In the case of `O=c1[nH]c(Nc2ccc(O)cc2)nc(-c2ccccc2)c1Cc1c(O)ccc2ccccc12`, the IC50 was 92.4 µM with EJ [1]; over 300 µM in [2]; over 300 µM in [3]; 90.9 µM with EJ [4]; over 300 µM with RT-112 [5]; 265 µM with RT-112 [6]. The inhibition result in assay [7] is “inactive”.
For the compound `CCN(CC)c1nc(-c2ccccc2)c(Cc2c(O)ccc3ccccc23)c(=O)[nH]1`, the IC50 is 79.7 µM in the assay with EJ [1]; over 300 µM in [2]; over 300 µM in assay [3]; 15.4 µM in the assay with EJ [4]; 32.2 µM in the assay on RT-112 [5]; 155 µM with RT-112 [6]. For the same compound, the inhibition entry in assay [7] is “inactive”.
In the case of `COc1ccc(Nc2nc(-c3ccccc3)c(Cc3c(O)ccc4ccccc34)c(=O)[nH]2)cc1`, the IC50 in the assay on EJ [1] was 63.7 µM; in assay [2], over 300 µM; in [3], over 300 µM; in the assay with EJ [4], 160 µM; in the assay on RT-112 [5], 18.5 µM; in the assay on RT-112 [6], 138 µM. Moreover, the inhibition result in assay [7] is “inactive”.
`C#CCNc1nc(-c2ccccc2)c(Cc2c(O)ccc3ccccc23)c(=O)[nH]1`: the IC50 was 148 µM in the assay on EJ [1]; over 300 µM in [2]; over 300 µM in assay [3]; 16.8 µM in the assay on EJ [4]; 91.2 µM with RT-112 [5]; 130 µM in the assay with RT-112 [6]. Also, the inhibition entry in assay [7] is “inactive”.
As for `O=c1[nH]c(NCCc2ccc(O)c(O)c2)nc(-c2ccccc2)c1Cc1c(O)ccc2ccccc12`, the IC50 in the assay on EJ [1] was 71.7 µM; in [2], over 300 µM; in [3] it was over 300 µM; in the assay with EJ [4], 12.6 µM; in the assay on RT-112 [5], 35.9 µM; in the assay on RT-112 [6], 79.3 µM. Also, the inhibition entry in assay [7] is “inactive”.
